Numbers after ± are expanded uncertainties.
Columns and labels:
[1] = xn = mol fraction of the nth substance listed; conditions: 101 kPa, Liquid; for speed of sound: Sing-around technique in a fixed-path interferometer
[2] = refractive index (Na D-line) (dimensionless); xn = mol fraction of the nth substance listed; conditions: 101 kPa, Liquid, Standard Abbe refractometry

Cc1cccc(O)c1 [3-methylphenol] + CCCCCCCCCCO
Conditions	mass density, 298.15 K [kg/m3]	mass density, 303.15 K [kg/m3]	mass density, 308.15 K [kg/m3]	refractive index, 298.15 K	refractive index, 303.15 K	refractive index, 308.15 K	speed of sound, 298.15 K [m/s]	speed of sound, 303.15 K [m/s]	speed of sound, 308.15 K [m/s]
[1], x1 = 0.0818	836.406 ± 0.53	832.948 ± 0.54	829.481 ± 0.55	–	–	–	1384.4 ± 1.1	1367.3 ± 1.1	1350.5 ± 1.1
[1], x1 = 0.1443	844.417 ± 0.52	840.933 ± 0.52	837.44 ± 0.53	–	–	–	1388.1 ± 1.1	1371 ± 1.1	1354.3 ± 1.1
[1], x1 = 0.2191	854.601 ± 0.49	851.084 ± 0.5	847.557 ± 0.51	–	–	–	1392.5 ± 1.1	1375.5 ± 1.1	1358.6 ± 1.1
[1], x1 = 0.27	861.935 ± 0.48	858.394 ± 0.48	854.842 ± 0.49	–	–	–	1395.7 ± 1.1	1378.5 ± 1.1	1361.8 ± 1
[1], x1 = 0.3513	874.407 ± 0.45	870.825 ± 0.46	867.235 ± 0.47	–	–	–	1400.5 ± 1.1	1383.7 ± 1.1	1366.8 ± 1
[1], x1 = 0.4154	884.964 ± 0.43	881.35 ± 0.44	877.727 ± 0.44	–	–	–	1404.8 ± 1.1	1388 ± 1	1371.2 ± 1
[1], x1 = 0.4864	897.533 ± 0.4	893.881 ± 0.41	890.219 ± 0.42	–	–	–	1410.1 ± 1.1	1393.4 ± 1	1376.6 ± 1
[1], x1 = 0.5447	908.582 ± 0.38	904.899 ± 0.39	901.205 ± 0.39	–	–	–	1415.1 ± 1.1	1398.3 ± 1	1381.5 ± 1
[1], x1 = 0.6205	924.111 ± 0.35	920.384 ± 0.35	916.647 ± 0.36	–	–	–	1422.3 ± 1	1405.6 ± 1	1388.9 ± 1
[1], x1 = 0.6951	940.809 ± 0.31	937.04 ± 0.32	933.259 ± 0.33	–	–	–	1430.7 ± 1	1414 ± 1	1397.5 ± 1
[1], x1 = 0.7472	953.452 ± 0.29	949.651 ± 0.3	945.837 ± 0.3	–	–	–	1437.2 ± 1	1420.7 ± 1	1404.4 ± 1
[1], x1 = 0.8163	971.635 ± 0.25	967.793 ± 0.26	963.936 ± 0.27	–	–	–	1447.3 ± 1	1431.1 ± 1	1414.8 ± 1
[1], x1 = 0.8738	988.185 ± 0.22	984.309 ± 0.23	980.414 ± 0.23	–	–	–	1457.3 ± 1	1441 ± 1	1424.9 ± 1
[1], x1 = 0.9325	1006.6 ± 0.21	1002.69 ± 0.2	998.753 ± 0.2	–	–	–	1468.8 ± 1	1452.8 ± 1	1436.8 ± 1
[1], x1 = 1	1030.05 ± 0.25	1026.09 ± 0.24	1022.12 ± 0.23	–	–	–	1480.9 ± 1	1465.2 ± 1	1449.6 ± 1
[2], x1 = 0.0818	–	–	–	1.43899 ± 0.00058	1.43686 ± 0.00056	1.43464 ± 0.00055	–	–	–
[2], x1 = 0.1443	–	–	–	1.44269 ± 0.00059	1.44048 ± 0.00058	1.43816 ± 0.00057	–	–	–
[2], x1 = 0.2191	–	–	–	1.44749 ± 0.00061	1.44514 ± 0.0006	1.44269 ± 0.00059	–	–	–
[2], x1 = 0.27	–	–	–	1.45104 ± 0.00063	1.44858 ± 0.00062	1.44602 ± 0.0006	–	–	–
[2], x1 = 0.3513	–	–	–	1.45712 ± 0.00066	1.45453 ± 0.00064	1.45183 ± 0.00062	–	–	–
[2], x1 = 0.4154	–	–	–	1.46234 ± 0.00068	1.45965 ± 0.00065	1.45687 ± 0.00063	–	–	–
[2], x1 = 0.4864	–	–	–	1.46869 ± 0.0007	1.46584 ± 0.00067	1.46299 ± 0.00064	–	–	–
[2], x1 = 0.5447	–	–	–	1.47429 ± 0.00072	1.47138 ± 0.00068	1.46848 ± 0.00064	–	–	–
[2], x1 = 0.6205	–	–	–	1.48226 ± 0.00073	1.47932 ± 0.00069	1.47636 ± 0.00064	–	–	–
[2], x1 = 0.6951	–	–	–	1.49092 ± 0.00072	1.48799 ± 0.00069	1.48499 ± 0.00066	–	–	–
[2], x1 = 0.7472	–	–	–	1.49755 ± 0.00073	1.49459 ± 0.00069	1.49161 ± 0.00065	–	–	–
[2], x1 = 0.8163	–	–	–	1.50709 ± 0.00073	1.50419 ± 0.00068	1.50126 ± 0.00064	–	–	–
[2], x1 = 0.8738	–	–	–	1.51581 ± 0.00072	1.51296 ± 0.00067	1.51007 ± 0.00064	–	–	–
[2], x1 = 0.9325	–	–	–	1.5256 ± 0.00073	1.52274 ± 0.00068	1.51982 ± 0.00063	–	–	–
[2], x1 = 1	–	–	–	1.538 ± 0.0007	1.535 ± 0.0007	1.532 ± 0.0007	–	–	–

Cc1ccc(O)cc1 [4-methylphenol] + CCCCCCCCCCO
Conditions	mass density, 298.15 K [kg/m3]	mass density, 303.15 K [kg/m3]	mass density, 308.15 K [kg/m3]	refractive index, 298.15 K	refractive index, 303.15 K	refractive index, 308.15 K	speed of sound, 298.15 K [m/s]	speed of sound, 303.15 K [m/s]	speed of sound, 308.15 K [m/s]
[1], x1 = 0.079	836.102 ± 0.54	832.641 ± 0.55	829.175 ± 0.56	–	–	–	1384.9 ± 1.1	1367.8 ± 1.1	1350.9 ± 1.1
[1], x1 = 0.1424	844.261 ± 0.54	840.772 ± 0.54	837.278 ± 0.55	–	–	–	1389 ± 1.1	1371.9 ± 1.1	1355.1 ± 1.1
[1], x1 = 0.2213	855.053 ± 0.52	851.531 ± 0.53	847.999 ± 0.54	–	–	–	1394 ± 1.1	1376.9 ± 1.1	1360 ± 1.1
[1], x1 = 0.2915	865.315 ± 0.51	861.764 ± 0.52	858.196 ± 0.53	–	–	–	1398.6 ± 1.2	1381.6 ± 1.1	1364.7 ± 1.1
[1], x1 = 0.3611	876.182 ± 0.5	872.603 ± 0.51	869.001 ± 0.52	–	–	–	1403.5 ± 1.2	1386.4 ± 1.2	1369.6 ± 1.2
[1], x1 = 0.418	885.652 ± 0.49	882.051 ± 0.5	878.417 ± 0.51	–	–	–	1407.7 ± 1.2	1390.8 ± 1.2	1373.9 ± 1.2
[1], x1 = 0.4915	898.718 ± 0.48	895.088 ± 0.49	891.418 ± 0.49	–	–	–	1413.7 ± 1.2	1396.8 ± 1.2	1379.9 ± 1.2
[1], x1 = 0.5566	911.201 ± 0.47	907.546 ± 0.48	903.844 ± 0.48	–	–	–	1419.6 ± 1.2	1402.7 ± 1.2	1385.9 ± 1.2
[1], x1 = 0.6321	926.903 ± 0.46	923.218 ± 0.46	919.477 ± 0.47	–	–	–	1427.5 ± 1.3	1410.7 ± 1.3	1394 ± 1.3
[1], x1 = 0.7041	943.248 ± 0.44	939.531 ± 0.45	935.758 ± 0.46	–	–	–	1436.1 ± 1.3	1419.4 ± 1.3	1402.8 ± 1.3
[1], x1 = 0.7628	957.751 ± 0.43	954.009 ± 0.44	950.207 ± 0.44	–	–	–	1444 ± 1.3	1427.3 ± 1.3	1411 ± 1.3
[1], x1 = 0.8229	973.785 ± 0.42	970.012 ± 0.42	966.196 ± 0.43	–	–	–	1453.2 ± 1.3	1436.7 ± 1.3	1420.2 ± 1.3
[1], x1 = 0.8793	990.126 ± 0.41	986.325 ± 0.41	982.485 ± 0.42	–	–	–	1462.3 ± 1.4	1446.2 ± 1.4	1429.9 ± 1.4
[1], x1 = 0.9382	1008.68 ± 0.43	1004.85 ± 0.42	1000.99 ± 0.41	–	–	–	1474.2 ± 1.4	1458 ± 1.4	1442.4 ± 1.4
[1], x1 = 1	1030.14 ± 0.49	1026.28 ± 0.48	1022.38 ± 0.47	–	–	–	1486.4 ± 1.4	1470.7 ± 1.4	1455 ± 1.4
[2], x1 = 0.079	–	–	–	1.43878 ± 0.00059	1.43659 ± 0.00057	1.43439 ± 0.00055	–	–	–
[2], x1 = 0.1424	–	–	–	1.44253 ± 0.0006	1.44025 ± 0.00059	1.43792 ± 0.00057	–	–	–
[2], x1 = 0.2213	–	–	–	1.44759 ± 0.00062	1.44524 ± 0.0006	1.44279 ± 0.00059	–	–	–
[2], x1 = 0.2915	–	–	–	1.45252 ± 0.00064	1.45006 ± 0.00063	1.44748 ± 0.00061	–	–	–
[2], x1 = 0.3611	–	–	–	1.45786 ± 0.00066	1.45529 ± 0.00064	1.45263 ± 0.00063	–	–	–
[2], x1 = 0.418	–	–	–	1.46259 ± 0.00067	1.45994 ± 0.00066	1.45719 ± 0.00064	–	–	–
[2], x1 = 0.4915	–	–	–	1.46921 ± 0.00069	1.46649 ± 0.00067	1.46363 ± 0.00065	–	–	–
[2], x1 = 0.5566	–	–	–	1.47562 ± 0.00072	1.47279 ± 0.00069	1.46987 ± 0.00066	–	–	–
[2], x1 = 0.6321	–	–	–	1.48379 ± 0.00074	1.48088 ± 0.00071	1.47785 ± 0.00067	–	–	–
[2], x1 = 0.7041	–	–	–	1.49234 ± 0.00075	1.48935 ± 0.00072	1.48629 ± 0.00068	–	–	–
[2], x1 = 0.7628	–	–	–	1.49988 ± 0.00075	1.49689 ± 0.00072	1.49381 ± 0.0007	–	–	–
[2], x1 = 0.8229	–	–	–	1.50829 ± 0.00076	1.50524 ± 0.00073	1.50212 ± 0.0007	–	–	–
[2], x1 = 0.8793	–	–	–	1.51677 ± 0.00077	1.51369 ± 0.00074	1.51055 ± 0.0007	–	–	–
[2], x1 = 0.9382	–	–	–	1.52626 ± 0.00077	1.52321 ± 0.00073	1.52011 ± 0.00069	–	–	–
[2], x1 = 1	–	–	–	1.537 ± 0.00072	1.534 ± 0.00072	1.531 ± 0.00072	–	–	–
